In this experiment the test system is SCC7 cells. The class given is in vivo. The settings on record: 18 days therapy.

Experimental: A balb/c nude mouse (5 weeks old, male) was used as an experimental animal group, and a tumor was formed by subcutaneously inoculating SCC7 cells (1.0×10^6 cells suspended in the culture medium) into the left thigh of the mouse. When the tumor volume became approximately 50 mm^3, the tumor was used for the experiment.
For the selective therapy of cancer tissue, DOX was each loaded into L-Td55 and L-Td92, which are a carrier having cancer tissue selectivity.
The therapy experiment was performed by classifying the mice into total six groups (PBS, L-Td55, L-Td92, free DOX, DOX@L-Td55, and DOX@L-Td92), and 7 mice per group were used. Before the therapy was performed each time, the tumor volume and the mouse body weight were measured. In this case, the tumor volume was calculated by a method of (minor axis^2*major axis)/2. Each sample was injected into the caudal vein of the mice completely subjected to measurement (see Slide #2 for concentration), the therapy was performed once every three days, and the therapy was performed total 6 times.

As for `COc1cccc2c1C(=O)c1c(O)c3c(c(O)c1C2=O)C[C@@](O)(C(=O)CO)C[C@@H]3O[C@H]1C[C@H](N)[C@H](O)[C@H](C)O1` [free DOX, doxorubicin], the Therapeutic effect result is “slight therapeutic effects”.

(Values after patent publication US11446254B2, “Drug carrier having self-assembled 3-D nucleic acid nanostructure” (KOREA INSTITUTE OF SCIENCE AND TECHNOLOGY, priority 2014, dated 2022).)
